Reference: US20090233307A1, “METHODS FOR DETECTION OF SINGLE STRAND BREAKS IN DNA” (The University of North Carolina at Chapel Hill, priority 2008, published 2009)

Tests used:
DT40 cells [1] = experiment: SSB repair through NAD(P)H depletion, DT40 cells; assay type: cell-based, chicken; settings: 1 mM MMS for up to 4 hours, DT40 cells
Procedure: (§1) SSB repair capacity was determined by a real-time colorimetric assay that measures intracellular NAD(P)H levels (Tano et al., DNA Repair, 6, 869-875 (2007)). PARP-1 activation during SSB repair leads to NAD^+ consumption, which can be indirectly monitored through NAD(P)H depletion (Nakamura et al., Nucleic Acids Res., 31, e104 (2003)). Briefly, 5×10^3 cells/well were seeded into a 96-well plate. After a 30 minute incubation period, the cells were treated with 1 mM MMS quickly followed by the addition of a dye containing XTT (Sigma) and 1-methoxy PMS (Sigma). For up to 4 hours, the NAD(P)H-dependent conversion of the XTT tetrazolium salt to a yellow colored formazan dye was measured spectrophotometrically. Decreases in intracellular NAD(P)H levels were determined through comparison of values to those of the PBS control. Established methods for detecting SSBs have not been adequately characterized for pH effects on DNA structure and chemistry and also lack a high specificity for SSBs, primarily because of artifactual SSB formation. […] The accumulation of SSBs leads to PARP-1 over-activation and the consumption of NAD+, which is indirectly monitored in living cells through the measurement of intracellular NAD(P)H depletion using tetrazolium salts, such as XTT, during chemical exposure (Tano et al., DNA Repair, 6, 869-875 (2007)). […]

DT40 cells [2] = assay type: cell-based; settings: chicken, 1 mM
Procedure: (§2) DT40 and Pol β null cells were seeded into 100 cm dishes and allowed to divide overnight to reach the density of 1×10^6 cells/mL. Cells were exposed to a continuous treatment of 1 mM methyl methanesulfonate (MMS; Aldrich) for up to 4 hours. Control cells received 1× phosphate buffered saline (PBS) for 0.5 hour. After incubation, cells were harvested, washed with chilled 1× PBS, pelleted, and stored at −80° C. until DNA isolation. Using this protocol, DT40 cells were also incubated in the absence of chemical to obtain a stock of untreated DNA.

Pol β null cells [3] = experiment: Alkaline gel electrophoresis with or without OTX of DNA from exposed Pol β null cells; assay type: cell-based, chicken; settings: 1 mM MMS, 1-4 hours
Procedure: as §2
DNA was extracted using a PureGene® DNA extraction kit (Gentra Systems. Inc.) with modifications as described previously (Nakamura et al., J. Biol. Chem., 275, 5323-5328 (2000)).
An alkaline gel electrophoresis protocol (AGE) (Drouin et al., in: Technologies for Detection of DNA Damage and Mutations (G. P. Pfeifer, ed.). Plenum Press, New York, N.Y., pp. 37-43 (1996)) with modifications was used to assess SSBs and ALSs in DNA from exposed cells. The 0.7% agarose gel was prepared in gel buffer (50 mM NaCl, 1 mM EDTA, pH 7) and deionized water. After forming, the gel was soaked in mild alkaline running buffer (30 mM NaOH, 1 mM EDTA, pH 12.4) for at least 30 minutes. Equal amounts of DNA (3-5 μg) were incubated for 1 hour at 37° C. in the presence or absence of 30 mM OTX (Aldrich) in 50 mM HEPES buffer. […]

Pol β null cells [4] = experiment: SSB repair through NAD(P)H depletion, Pol β null cells; assay type: cell-based, chicken; settings: 1 mM MMS for up to 4 hours, Pol β null cells
Procedure: as §1

Pol β null cells [5] = assay type: cell-based, chicken
Procedure: as §2

SMILES: COS(C)(=O)=O [MMS, methyl methanesulfonate]
- intracellular NAD(P)H levels (DT40 cells [1]): time-dependent decrease in intracellular NAD(P)H levels
- AP sites (ASB assay) compared to control (DT40 cells [2]): time-dependent, significant (p<0.01 for all time points, student t-test) increase in AP sites
- SSB accumulation (DNA migration) by OTX-AGE (Pol β null cells [3]): clear time-dependent increase in DNA migration
- intracellular NAD(P)H levels (Pol β null cells [4]): time-dependent decrease but with more extensive depletion occurring as early as 30 minutes
- AP site formation (ASB assay) compared with parental DT40 cells (Pol β null cells [5]): more massive AP site formation
- AP sites (ASB assay) compared to control (Pol β null cells [5]; chicken, 1 mM): time-dependent, significant (p<0.01 for all time points, student t-test) increase in AP sites
